Experimental data taken from patent US9546129B2, “DTPA prodrugs, compositions thereof, and methods of using the same” (priority 2012, dated 2017).
Converted amounts (≈) assume the structure as drawn.

Key:
[1] = Aqueous solubility, preliminary test; assay type: physicochemical; conditions: thermodynamic from solid; distilled water, 10 minutes stirring, visual check, sample JH012B; read-out: Approximate solubility
Description: A small sample of C2E2 (0.1 g, JH012B) was weighed out and placed in a 25 mL graduated cylinder. Increasing volumes of distilled water were added according to the chart below:
After each addition of the indicated amount of water, the mixture was stirred for 10 minutes and visually checked for any dissolved parts of the sample. […] The approximate solubility is therefore 10-50 g/L.

[2] = Body weights and clinical observations in the rat single dose decorporation study; assay type: in vivo, Sprague Dawley rat; conditions: for Mean body weight: in g (unit assumed)
Source text: Each rat was weighed at contamination (Day 0) and the terminal body weight (Day 7) was taken at necropsy.

[3] = tested on: Caco-2 cells; assay: Caco-2 transport study (apical to basolateral); assay type: in vitro ADME, human
Description: (§1) Caco-2 cells are a human colon epithelial cancer cell line that expresses transporters, efflux proteins and phase II enzymes and can be used to correlate cell permeability with drug absorption. In addition to determining the apparent permeability coefficient, an estimation of C2E2 metabolism during transport can be obtained. The aim of these preliminary studies was to evaluate a range of C2E2 concentrations (25, 50 & 100 μM) in order to determine a linear concentration range in which further studies could be performed.
(§2) Caco-2 cells (passage #39) were cultured in 75 cm^2T-flasks at 37° C. in a 5% CO2 constant humidity environment. The medium was replaced 3 times a week and the monolayers were sub-cultured to passage #41. When plating the cells 0.5 mL of a 120,000 cells/mL suspension was added to each apical (AP) compartment of the first and then 1.5 mL of cell culture medium was placed into the basolateral (BL) compartment of the Transwells®. Following 21-24 days on the Transwell® plates with media changes 2-3 times a week the Caco-2 transport studies were performed.
(§3) Prior to the transport experiments the transport medium was warmed to 37° C. Transport medium consisted of Hank's Balanced Salt Solution (HBSS) (1×) with calcium and magnesium 500 mL with the addition of 1M HEPES buffer (5 mL) and 1.25M D-Glucose solution in HBSS (10 mL). The cell culture medium was removed from the Transwells® to be used for the experiment and each well was washed twice with warm transport medium. The Transwells® were then pre-incubated for 30 min with transport medium. Finally, the trans-epithelial resistance (TEER) values for each Transwell® were measured using a voltohmmmeter and chopstick electrode. The TEER values should be in the range of 300-750 and should vary as little as possible. Dosing solutions were prepared in warm (37° C.) transport medium. […] The concentration of C2E2 was then determined by LC-MS/MS. The concentration of the dosing solutions was also measured to determine the concentration in the donor compartment at time zero. […]

[4] = Caco-2 transport study (apical to basolateral); assay type: in vitro ADME, human; conditions: human, Caco-2; apical to basolateral; read-out: Apparent permeation coefficient
Description: as §1, §2, §3

[5] = Gadolinium complex stability constant by titration; assay type: binding; conditions: 3-5 mM in 0.1 M KCl, equimolar gadolinium chloride
Description: The stability constant for a complex between C2E2 and gadolinium (i.e., the C2E2-Gd complex) was determined by titration. C2E2 solutions (3-5 mM) were prepared in 0.1 M KCl. Gadolinium chloride was added in equimolar concentrations. The experiment consisted of a titration with base, followed by a titration with acid. After each addition of titrant, a 30 second equilibration time passed before pH measurement with a Seven Easy pH meter and (Ag/AgCl reference) glass electrode (Metler Tolledo). The pKa values previously determined, as described in Example 9, were used to calculate the gadolinium stability constant using […] software. The stability of the C2E2-Gd complex was log K 17.34±1.13, which lies between those of EDTA and DTPA (17.0 and 22.5, respectively).

CCOC(=O)CN(CCN(CCN(CC(=O)O)CC(=O)OCC)CC(=O)O)CC(=O)O [C2E2, 6,9-bis(carboxymethyl)-3-(2-ethoxy-2-oxoethyl)-11-oxo-12-oxa-3,6,9-triazatetradecan-1-oic acid]
solubility at 10 min [1]: 10 to 50 mg/mL (≈ 22.2 to 111 mM)
Mean Percentage Body Weight Change ([2]; Female, C2E2 200 mg/kg, Fasted): 0.8 ± 2.2%
Mean Percentage Body Weight Change ([2]; Female, C2E2 200 mg/kg, ad libitum): 0.0 ± 2.5%
Mean Percentage Body Weight Change ([2]; Female, C2E2 600 mg/kg, Fasted): −2.3 ± 3.3%
Mean Percentage Body Weight Change ([2]; Female, C2E2 600 mg/kg, ad libitum): 1.1 ± 1.2%
Mean Percentage Body Weight Change ([2]; Female, C2E2 1000 mg/kg, Fasted): −5.0 ± 2.9%
Mean Percentage Body Weight Change ([2]; Female, C2E2 1000 mg/kg, ad libitum): 0.7 ± 2.1%
Mean Percentage Body Weight Change ([2]; Male, C2E2 200 mg/kg, Fasted): 8.1 ± 8.4%
Mean Percentage Body Weight Change ([2]; Male, C2E2 200 mg/kg, ad libitum): 10.4 ± 11.0%
Mean Percentage Body Weight Change ([2]; Male, C2E2 600 mg/kg, Fasted): 12.6 ± 3.1%
Mean Percentage Body Weight Change ([2]; Male, C2E2 600 mg/kg, ad libitum): 10.1 ± 3.1%
Mean Percentage Body Weight Change ([2]; Male, C2E2 1000 mg/kg, Fasted): 12.0 ± 4.8%
Mean Percentage Body Weight Change ([2]; Male, C2E2 1000 mg/kg, ad libitum): 10.6 ± 0.8%
Mean body weight ([2]; female rats, C2E2 200 mg/kg, Fasted, Day 0): 245.0 ± 11.6
Mean body weight ([2]; female rats, C2E2 200 mg/kg, Fasted, Day 7 (terminal)): 246.8 ± 9.6
Mean body weight ([2]; female rats, C2E2 200 mg/kg, ad libitum, Day 0): 276.8 ± 17.3
Mean body weight ([2]; female rats, C2E2 200 mg/kg, ad libitum, Day 7 (terminal)): 276.5 ± 15.1
Mean body weight ([2]; female rats, C2E2 600 mg/kg, Fasted, Day 0): 280.5 ± 28.0
Mean body weight ([2]; female rats, C2E2 600 mg/kg, Fasted, Day 7 (terminal)): 273.5 ± 19.2
Mean body weight ([2]; female rats, C2E2 600 mg/kg, ad libitum, Day 0): 247.0 ± 13.8
Mean body weight ([2]; female rats, C2E2 600 mg/kg, ad libitum, Day 7 (terminal)): 249.7 ± 14.5
Mean body weight ([2]; female rats, C2E2 1000 mg/kg, Fasted, Day 0): 276.3 ± 17.9
Mean body weight ([2]; female rats, C2E2 1000 mg/kg, Fasted, Day 7 (terminal)): 262.7 ± 23.8
Mean body weight ([2]; female rats, C2E2 1000 mg/kg, ad libitum, Day 0): 232.5 ± 19.3
Mean body weight ([2]; female rats, C2E2 1000 mg/kg, ad libitum, Day 7 (terminal)): 234.2 ± 21.4
Clinical observations ([2]; male and female rats, 200, 600, 1000 mg/kg single oral dose, 7 days): No adverse C2E2 exposure-related clinical observations
Mean body weight ([2]; male rats, C2E2 200 mg/kg, Fasted, Day 0): 291.3 ± 12.7
Mean body weight ([2]; male rats, C2E2 200 mg/kg, Fasted, Day 7 (terminal)): 314.2 ± 14.4
Mean body weight ([2]; male rats, C2E2 200 mg/kg, ad libitum, Day 0): 296.3 ± 9.4
Mean body weight ([2]; male rats, C2E2 200 mg/kg, ad libitum, Day 7 (terminal)): 326.5 ± 25.7
Mean body weight ([2]; male rats, C2E2 600 mg/kg, Fasted, Day 0): 275.9 ± 9.7
Mean body weight ([2]; male rats, C2E2 600 mg/kg, Fasted, Day 7 (terminal)): 310.6 ± 9.1
Mean body weight ([2]; male rats, C2E2 600 mg/kg, ad libitum, Day 0): 292.8 ± 5.1
Mean body weight ([2]; male rats, C2E2 600 mg/kg, ad libitum, Day 7 (terminal)): 322.2 ± 6.4
Mean body weight ([2]; male rats, C2E2 1000 mg/kg, Fasted, Day 0): 270.3 ± 5.8
Mean body weight ([2]; male rats, C2E2 1000 mg/kg, Fasted, Day 7 (terminal)): 302.8 ± 14.2
Mean body weight ([2]; male rats, C2E2 1000 mg/kg, ad libitum, Day 0): 290.5 ± 6.6
Mean body weight ([2]; male rats, C2E2 1000 mg/kg, ad libitum, Day 7 (terminal)): 321.2 ± 6.5
Percentage of dose detected in the receiving compartment ([3]; apical to basolateral, 25, 50 & 100 μM, two hours): 18-22%
Predicted absorption in humans ([3]; from Caco-2 Papp using data of Shiyin Yee): 20-70%
Papp A→B at 120 min [4]: 4.88 ×10⁻⁶ cm/s
Stability of the gadolinium complex, log K [5]: 17.34±1.13
